Patent EP4663632A1, “COMPOUNDS USEFUL FOR THE MODULATION OF THE ACTIVITY OF STING” (Sulis Therapeutics ApS, priority 2024, dated 2025)
Values belong to the compound of their own block, whether it stands above or below them.

Key:
[1] = target: T1, C-terminal domain (CTD) of human STING (Homo sapiens, UniProt Q86WV6); experiment: STING binding FP assay I; design: recombinant human STING protein (155-379); settings: 35 nM STING, 4 nM Probe 1
Method: (§1) The interaction between molecules and the C-terminal domain (CTD) of human STING was evaluated using a competition binding assay. In this assay, recombinant human STING protein (155-379) and a STING binding fluorescent probe were employed. Upon binding of the probe to STING, the rotation of the fluorescent probe is slowed due to the larger molecular size of the protein-bound complex. As a result, emitted light retains its plane of polarization, leading to an increase in fluorescence polarization. Molecules competing for the probe binding site displace the probe, which leads to rapid randomization of the polarization plane of the emitted light and a subsequent decrease in measured fluorescence polarization signal. Change in polarization was measured, allowing a comparative evaluation of the binding affinities of different compounds to the target protein.
(§2) The assay was performed in 96-well plates (ThermoFisher, cat.# 237108) containing 100µl : 10 µL test compound in 10% DMSO and buffer A (150 mM NaCl, 50 mM HEPES pH 7.5, 1 mM DTT) + 90 µL prepared master mix solution of: 4 nM fluorescein-labelled STING ligand (Probe 1; synthesis described above) in buffer A + 0.055% Tween-20 (v/v) and 35 nM STING in buffer A. Post mixing, plates were agitated at 600rpm and incubated for 20 min at room temperature. Subsequent measurements of the fluorescence polarization signal were made on a BioTek Synergy-H1 plate reader, using a polarization filter; Exc: 485/20 nm, Em: […]) with a gain-setting of 75. IC50 values were determined using a standard non-linear regression four-parameter curve fit in Graphpad Prism.

[2] = target: T1, C-terminal domain (CTD) of human STING; experiment: STING binding FP assay II; design: recombinant human STING protein (155-379); settings: 7 nM STING
Method: as §1, §2
The procedure for STING binding FP assay II is the same as described for STING binding FP assay I, except for a lower STING concentration. In STING binding FP assay II, a concentration of 7 nM STING in buffer A was used.

STING [3] = target: T2, STING (Homo sapiens, UniProt Q86WV6); experiment: Western Blot analysis of STING phosphorylation in human fibroblast cells (STING agonism); format: cell-based; design: host or cells: HFF-1 human foreskin fibroblasts; settings: 7.2µM-3.6nM; 24h
T2 sequence (Q86WV6 whole entry): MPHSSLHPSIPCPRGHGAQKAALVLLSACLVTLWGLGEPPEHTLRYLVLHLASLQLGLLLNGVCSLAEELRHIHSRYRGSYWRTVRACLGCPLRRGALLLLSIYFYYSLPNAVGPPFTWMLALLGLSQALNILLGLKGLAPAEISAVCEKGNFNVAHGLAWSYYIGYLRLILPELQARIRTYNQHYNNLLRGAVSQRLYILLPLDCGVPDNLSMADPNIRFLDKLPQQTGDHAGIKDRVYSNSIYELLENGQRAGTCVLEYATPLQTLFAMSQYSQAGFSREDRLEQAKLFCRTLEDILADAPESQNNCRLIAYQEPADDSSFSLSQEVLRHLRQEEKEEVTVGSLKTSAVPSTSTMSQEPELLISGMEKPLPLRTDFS
Method: Human fibroblast were treated with a titration of E22, E9, E14 and E16 (7.2µM-3.6nM) for 24h prior to cell lysis and subsequently total STING, pSTING and Vinculin were assessed by western blot using rabbit anti-STING (1:1000), anti-pSTING (1:1000), anti-Vinculin (1:1000) and 2nd anti-rabbit-HRP (1:10.000) or anti-mouse-HRP (1:7500). Proteins were visualized using ImageQuant800. Control cells included untreated cells and cells treated with 300nM diABZI C3.

[4] = target: T1, C-terminal domain (CTD) of human STING; experiment: STING binding FP assay III; design: recombinant human STING protein (155-379); settings: 10 nM STING (FP assay III according to the text); read-out: STING binding FP assay II, IC50
Method: as §1, §2
The procedure for STING binding FP assay III is the same as described for STING binding FP assay I, except for a lower STING concentration. In STING binding FP assay III, a concentration of 10 nM STING in buffer A was used.

STING [5] = target: T2, STING; experiment: Western Blot analysis for STING degradation (DC50) in HFF-1 cells; format: cell-based; design: host or cells: HFF-1 human foreskin fibroblasts; settings: 24h
Method: To assess STING degradation in human foreskin fibroblasts HFF-1 cells (ATCC, SCRC-1041) cells were seeded at a density of 60.000 cells/well in 24-well Nunclon Delta surface treated culture plate in DMEM growth medium (supplemented with 10% FBS, 1% Pen-strep). Cells were incubated over-night at 37°C 5% CO2 to allow adhesion. Next day growth medium was renewed and a 5x concentration of test compounds (2.5% DMSO) diluted in growth medium were added to the appropriate well. The final DMSO concentration were 0.5%. Cell culture plates were returned to the incubator for additional 24h.
(§3) For cell lysing for Western Blot analysis cell culture plates were brought to ice, supernatant was removed by aspiration and cells washed 2x in ice-cold DPBS. Cells were lysed in 65 µL of RIPA buffer supplemented with cOmplete ULTRA Tablets protease inhibitor cocktail, PIERCE Phosphatase inhibitor mini tablet, Benzonase and 10mM NaF for 20 min on ice. Lysates were collected, cleared by centrifugation (13000xg for 10 min at 4°C). Samples were either analysed directly or stored at -80°C until analysis.
(§4) For Western Blotting, total protein concentration in each lysate was determined using PIERCE Gold BCA Assay kit according to manufactures protocol. 6 µg of total protein was mixed with 2x Laemmli buffer containing DTT, boiled for 5 min at 95°C, cooled on ice and loaded into each well of a 4-20% Criterion TGX gel. Proteins were separated by electrophoresis, by running for 1h at 150V. After separation proteins were blotted onto a PVDF membrane by semi-dry transfer using Trans-Blot turbo system at pre-defined BioRad MIDI protocol; 25V, 1A (fixed) for 30 min. Membranes were blocked for 1h in 5% skim milk in TBS-T20 on a rocker at room temperature followed by washing and exposure to primary antibodies against human STING 1:1000 (Cell Signalling, #13647) or loading controls Vinculin 1:1000 (Cell Signalling, #13901) or beta-Actin 1:10000 (Sigma, A5441) all diluted in 5% BSA in TBS-T20. Membranes were probed over night at 4°C on a rocker. Membranes were washed 3x in TBS-T20 followed by exposure to secondary HRP-conjugated anti-rabbit antibody or HRP-conjugated anti-mouse antibody diluted 1:10000 in 5% skim milk in TBS-T20 as appropriate. Membranes were incubated for 1h at room temperature on a rocker, then washed 3x in TBS-T20.
(§5) For generating DC50 values, the intensity of individual bands was measured using imaged and expression levels were calculated as a ratio of STING intensities vs. Reference protein intensities and normalized to DMSO control. The normalized ratios were plotted on a XY curve in GraphPad Prism where DC50 was estimated using a 4-parameter non-linear regression fitting curve.

STING [6] = target: T2, STING; experiment: Western Blot analysis for STING degradation in H596 cells; format: cell-based; settings: 24h; reference protein beta-actin
Method: as §3, §4, §5
To assess STING degradation in H596 cells (ATCC, HTB-178) cells were seeded at a density of 100.000 cells/well in 24-well Nunclon Delta surface treated culture plate in RPMI-1640 growth medium (supplemented with 10% FBS, 1% Pen-strep). Cells were incubated over-night at 37°C 5% CO2 to allow adhesion. Next day growth medium was renewed and a 5x concentration of test compounds (2.5% DMSO) diluted in growth medium were added to the appropriate well. Final DMSO concentration was 0.5%. Cell culture plates were returned to the incubator for additional 24h. Final test compound concentrations were 0.22 µM, 0.67 µM, 2 µM and 6 µM.
For cell lysis, western blotting and data analysis, the methods described above for HFF-1 cells were applied.

STING [7] = target: T2, STING; experiment: Western Blot analysis for S1 STING ligand antagonism in primary human skin fibroblasts; format: cell-based; design: host or cells: HFF-1 human foreskin fibroblasts; settings: 5 µM; 2 h or 1 h before, simultaneously with, or 15 minutes after 0.3 µM diABZI
Method: To assess whether S1 STING ligands inhibit STING activation, primary human skin fibroblasts (Figure 5) or HFF-1 cells (Figure 6) were treated with various compounds which comprise only an S1 ligand domain and a Linker domain before undergoing Western Blot analysis as described below. Compounds A9, A11, A26 and A30 used in the following experiments share a common S1 ligand, which is also shared by Example compounds 1, 3, 5-29, 33-38.
Cells were incubated with A9 or A11 for 1 or 2 hours before addition of diABZI c3, treated with test compound and diABZI c3 simultaneously, or treated with A9 or A11 after 15 minutes incubation with diABZI c3. As a control, cells were also treated with diABZI c3 alone.

STING [8] = target: T2, STING; experiment: Western Blot analysis of inhibition of STING activation in HFF-1 cells; format: cell-based; design: host or cells: HFF-1 human foreskin fibroblasts; settings: for STING, TBK1 and IRF1 phosphorylation: 2 h or 5 h
Method: To assess whether S1 STING ligands inhibit STING activation, primary human skin fibroblasts (Figure 5) or HFF-1 cells (Figure 6) were treated with various compounds which comprise only an S1 ligand domain and a Linker domain before undergoing Western Blot analysis as described below.
The cells were lysed and analysed on WB. […] The WB membrane was probed for p-STING, STING, p-IRF3, p-TBK1, and Vinculin.

T1 sequence (Q86WV6 155-379): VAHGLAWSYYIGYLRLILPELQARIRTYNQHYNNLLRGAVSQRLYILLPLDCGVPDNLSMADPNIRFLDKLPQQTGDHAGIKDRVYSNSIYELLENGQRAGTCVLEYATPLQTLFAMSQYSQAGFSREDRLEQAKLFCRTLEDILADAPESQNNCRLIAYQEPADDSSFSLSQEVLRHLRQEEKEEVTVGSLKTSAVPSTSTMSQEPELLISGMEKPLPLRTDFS

IC50 [1]: < 30 nM
Structure (SMILES): CCn1nc(C)cc1C(=O)N=c1n(C)c2cc(C(N)=O)ccc2n1CCC(CCn1c(=NC(=O)c2cc(C)nn2CC)n(C)c2cc(C(N)=O)ccc21)OCC(=O)O (stereo not shown) [Building Block G-4, (3-{5-Carbamoyl-2-[(1-ethyl-3-methyl-5-pyrazolyl)carbonylimino]-3-methyl-2,3-dihydro-1H-1,3-benzimidazol-1-yl}-1-(2-{5-carbamoyl-2-[(1-ethyl-3-methyl-5-pyrazolyl)carbonylimino]-3-methyl-2,3-dihydro-1H-1 ,3-benzimidazol-1-yl}ethyl)propoxy)acetic acid]

IC50 [2]: 8.4 nM | STING phosphorylation (pSTING) (STING [3]): no STING phosphorylation was observed
Structure (SMILES): CCn1nc(C)cc1C(=O)N=c1n(C)c2cc(C(N)=O)ccc2n1CCC(CCn1c(=NC(=O)c2cc(C)nn2CC)n(C)c2cc(C(N)=O)ccc21)OCC(=O)NCCOCCOCCOCCOCCOc1cccc(C(=O)c2csc([C@@H]3CCCN3C(=O)[C@@H](NC(=O)[C@H](C)NC)C3CCCCC3)n2)c1 (stereo partly shown) [Example 9]

STING phosphorylation (pSTING) (STING [3]): no STING phosphorylation was observed
Structure (SMILES): CCn1nc(C)cc1C(=O)N=c1n(C)c2cc(C(N)=O)ccc2n1CCC(CCn1c(=NC(=O)c2cc(C)nn2CC)n(C)c2cc(C(N)=O)ccc21)OCC(=O)NCCOCCOCCOCCOc1cccc(C(=O)c2csc([C@@H]3CCCN3C(=O)[C@@H](NC(=O)[C@H](C)NC)C3CCCCC3)n2)c1 (stereo partly shown) [Example 22]

IC50 [4]: 3.1 nM | DC50 (STING [5]; reference protein beta-actin): < 200 nM
Structure (SMILES): CCn1nc(C)cc1C(=O)N=c1n(C)c2cc(C(N)=O)ccc2n1CCC(CCn1c(=NC(=O)c2cc(C)nn2CC)n(C)c2cc(C(N)=O)ccc21)OCC(=O)NCCOCCOCCOCCOCCC(=O)NCCOCCOCCOCCOCCOCCNc1cccc2c1C(=O)N(C1CCC(=O)NC1=O)C2=O (stereo not shown) [Example 25]

Structure (SMILES): CCn1nc(C)cc1C(=O)N=c1n(C)c2cc(C(N)=O)ccc2n1CCC(CCn1c(=NC(=O)c2cc(C)nn2CC)n(C)c2cc(C(N)=O)ccc21)OCC(=O)NCCOCCOCCOCCOCCC(=O)NCCOCCOCC(=O)N[C@H]1C[C@@H](C(=O)N[C@@H]2CCCc3ccccc32)N(C(=O)[C@@H](NC(=O)[C@H](C)NC)C2CCCCC2)C1 (stereo partly shown) [Example 26]
IC50 [4]: 4.4 nM | DC50 (STING [5]; reference protein vinculin): < 200 nM

Structure (SMILES): CCn1nc(C)cc1C(=O)N=c1n(C)c2cc(C(N)=O)ccc2n1CCC(CCn1c(=NC(=O)c2cc(C)nn2CC)n(C)c2cc(C(N)=O)ccc21)OCC(=O)NCCOCCOCCOCCOCCC(=O)N(C)CCOCCOCCOCCOCCC(=O)N[C@H](C(=O)N1C[C@H](O)C[C@H]1C(=O)N[C@@H](C)c1ccc(-c2scnc2C)cc1)C(C)(C)C (stereo partly shown) [Example 27]
DC50 (STING [6]): < 200 nM | IC50 [4]: 4.5 nM

LC3B lipidation (STING [7]): reduced LC3B lipidation | P-STING intensity (activation of STING) (STING [7]): reduced intensity of P-STING | P-TBK1 intensity (STING [7]): reduced P-TBK1 intensity
Structure (SMILES): CCn1nc(C)cc1C(=O)N=c1n(C)c2cc(C(N)=O)ccc2n1CCC(CCn1c(=NC(=O)c2cc(C)nn2CC)n(C)c2cc(C(N)=O)ccc21)OCC(=O)N1CCC[C@H]1c1cccc(OC)c1 (stereo partly drawn) [Example A11, 1-(3-{2-[(S)-2-(3-Methoxyphenyl)-1-pyrrolidinyl]-2-oxoethoxy}-5-{5-carbamoyl-2-[(1-ethyl-3-methyl-5-pyrazolyl)carbonylimino]-3-methyl-2,3-dihydro-1H-1,3-benzimidazol-1-yl}pentyl)-2-[(1-ethyl-3-methyl-5-pyrazolyl)carbonylimino]-3-methyl-2,3-dihydro-1H-1,3-benzimidazole-5-carboxamide]
STING, TBK1 and IRF1 phosphorylation (STING [8]; 5 µM for 15 min prior to 300 nM diABZI): lower compared to cells treated with diABZI c3 alone | STING, TBK1 and IRF1 phosphorylation (STING [8]; 5 µM for 15 min prior to 8 µg/mL cGAMP): lower compared to cells treated with cGAMP alone | phosphorylation of STING, IRF1 or TBK1 (agonism) (STING [8]; compound as single agent, no activation): no phosphorylation of STING, IRF1 or TBK1 was observed
